The experiment addresses T1, JAK3 (Homo sapiens, UniProt P52333).
T1 construct: host or cells: NK-92 natural killer cells, IL-2-stimulated
T1 sequence (P52333 1-1124): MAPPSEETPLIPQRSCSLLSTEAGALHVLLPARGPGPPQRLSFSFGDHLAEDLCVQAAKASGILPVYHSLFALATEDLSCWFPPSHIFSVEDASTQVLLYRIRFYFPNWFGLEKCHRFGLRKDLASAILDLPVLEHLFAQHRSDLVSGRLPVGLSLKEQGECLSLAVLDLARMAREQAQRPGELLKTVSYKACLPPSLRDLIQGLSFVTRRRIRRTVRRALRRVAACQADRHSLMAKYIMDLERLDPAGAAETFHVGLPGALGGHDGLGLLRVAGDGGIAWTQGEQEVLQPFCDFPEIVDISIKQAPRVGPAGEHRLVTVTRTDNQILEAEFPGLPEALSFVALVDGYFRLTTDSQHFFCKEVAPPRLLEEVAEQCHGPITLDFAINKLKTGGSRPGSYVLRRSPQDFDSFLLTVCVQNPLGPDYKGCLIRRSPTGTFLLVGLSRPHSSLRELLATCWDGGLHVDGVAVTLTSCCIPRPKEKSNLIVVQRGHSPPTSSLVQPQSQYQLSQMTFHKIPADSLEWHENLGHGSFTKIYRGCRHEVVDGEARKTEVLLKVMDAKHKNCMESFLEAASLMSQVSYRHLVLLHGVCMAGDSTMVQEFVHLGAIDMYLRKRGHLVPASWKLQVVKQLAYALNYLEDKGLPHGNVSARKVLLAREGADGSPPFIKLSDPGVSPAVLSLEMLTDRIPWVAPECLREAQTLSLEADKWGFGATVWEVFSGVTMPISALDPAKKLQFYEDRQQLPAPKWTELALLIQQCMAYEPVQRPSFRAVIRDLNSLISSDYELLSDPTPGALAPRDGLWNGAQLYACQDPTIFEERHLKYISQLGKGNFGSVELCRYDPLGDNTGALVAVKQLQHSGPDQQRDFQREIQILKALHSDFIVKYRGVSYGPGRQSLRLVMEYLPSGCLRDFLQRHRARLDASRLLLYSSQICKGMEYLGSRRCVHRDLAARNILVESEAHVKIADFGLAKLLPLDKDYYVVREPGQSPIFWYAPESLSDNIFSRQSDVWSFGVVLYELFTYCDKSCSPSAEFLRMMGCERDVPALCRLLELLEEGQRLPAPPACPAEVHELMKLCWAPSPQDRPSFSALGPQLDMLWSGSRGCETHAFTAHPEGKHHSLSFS
Kind of experiment: JAK3 IL-2-NK-92/pSTAT5 cell-based assay (Cellomics ArrayScan HCS). The source says:
IL-2 activates the JAK3 pathway in natural killer (NK) cells to drive the NK and CD8 lymphocyte proliferation. Therefore, IL-2 stimulated NK92/pSTAT5 cell-based assay enables the evaluation of the JAK3 cellular activity of JAK2 compounds in vitro.
NK-92 (natural killer) cells (ATCC, Manassas, Va.) are maintained in minimum essential medium (MEM) Alpha with 15% fetal bovine serum, 15% Horse Serum and 1× antibiotic/antimycotic (Invitrogen, Carlsbad, Calif.). The medium is supplemented with IL-2 (R&D systems, Minneapolis, Minn.) for a final concentration of 4 ng/mL. Cells are kept at 37° C. with 5% CO2. Cells are starved in serum free medium to remove endogenous growth factors. NK-92 cells are counted and collected to seed 2×10^7 cells per 96-well plate at a density of 2×10^5 cells per well. The cells are rinsed twice with unsupplemented MEM Alpha (MEM Alpha) before suspending cells at a final concentration of 8×10^5 cells/mL in MEM Alpha with 0.6% serum (0.3% FBS, 0.3% horse serum). […]
To perform the assay, serum-starved cells are collected and washed once with unsupplemented RPMI 1640 medium. […] An aliquot of 200 μL of 1 to 10 dilution of Mouse anti-pSTAT5 (pY694) Alexa Fluor 647® in fluorescence activated cell sorting (FACS) buffer is added to the cells. […] Mean fluorescent intensity data are collected and analyzed using Cellomics Arrayscan® VTi. […] The MSR is determined to be 2.06. […]

For orientation: IC50 means the point on the concentration scale where inhibition reaches its midpoint. For `Cc1cc(Nc2cc(CN3CCOCC3)c3nc(C)c(Cc4ccc(Cl)cc4F)n3n2)n[nH]1` [3-(4-Chloro-2-fluorobenzyl)-2-methyl-N-(5-methyl-1H-pyrazol-3-yl)-8-(morpholinomethyl)imidazo[1,2-b]pyridazin-6-amine], the “ratio of JAK3/JAK2 IC50” value (JAK3 IL2-NK92-pSTAT5 IC50 over JAK2 EPO-TF1/pSTAT5 IC50) came to 28.5 fold. For the same molecule, the IC50 (NK-92 cells, IL-2 0.5 ng/mL stimulated, n=4, read-out: relative IC50, inhibition of pSTAT5) came out at 940 nM.

The values are drawn from patent publication US20100286139A1, “AMINO PYRAZOLE COMPOUND” (ELI LILLY AND COMPANY, priority 2008, published 2010).
